These results are taken from patent publication US4287189A, “O,S-Dialkyl O-oxysulfonylphenyl phosphorothiolates and phosphorodithioates” (priority 1980, dated 1981).

In test [1] the test system is Green peach aphid (GPA). As to the kind of experiment: Green peach aphid test, sprayed infested broccoli leaves, percent killed after 24 hours. The following applies: Myzus persicae, lethal concentration at which 50% of the pests are killed. Type of test: in vivo. From the text: (§1) A test solution containing 600 ppm of test compound is made by dissolving the test compound in a solvent (acetone:methanol, 1:1), adding surfactant and then water to give an acetone:methanol:water system of 10:10:80. A 1:1 mixture of an alkylarylpolyether-alcohol (commercially available under the trademark Triton X-155) and a modified phthalic glycerol alkyd resin (commercially available under the trademark Triton B-1956) can be utilized at the equivalent of one ounce per gallon of test solution as a surfactant.
(§2) For the mite test, infested bean (Phaseolus limeanus) leaf discs (1.25 inches in diameter) containing about 50 mites and for green peach aphid tests, infested broccoli (Brassica oleracea italica) leaves or portions thereof containing about 50 aphids are placed in a Petri dish lid on a moistened piece of cotton. The leaves are then sprayed with the test solution using a rotating turntable. They are held for 24 hours and then the percent killed is determined.

Test [2] deals with Two-spotted spider mite (TSM). Nature of the test: Mite test, sprayed infested bean leaf discs, percent killed after 24 hours. The format is in vivo. Conditions: Tetranychus urticae, foliar, lethal concentration at which 50% of the pests are killed.
Text: Two-spotted spider mite
as §1, §2

Test [3] deals with Mexican bean beetle (BB). Nature of the test: Bean beetle test, sprayed bean leaves infested with third instar larvae, percent killed after 48 hours. The format is in vivo. The following applies: Epilachna varivestis, lethal concentration at which 50% of the pests are killed.
Text: Mexican bean beetle (BB)
as §1
(§3) For the bean beetle and armyworm test, detached bean leaves on pieces of moistened filter paper are sprayed as above for the mite test in similar dishes and allowed to dry. One such dish is infested with 10 third instar Mexican bean beetle larvae, while another is infested with 10 third instar southern armyworm larvae. The dishes are covered. After holding for 48 hours, the percent killed is obtained.

Test [4] relates to Southern armyworm (AW). Nature of the test: Armyworm test, sprayed bean leaves infested with third instar larvae, percent killed after 48 hours. Type of test: in vivo. Conditions: Spodoptera eridania, lethal concentration at which 50% of the pests are killed.
Text: as §1, §3

Test [5] deals with Boll weevil (BW). Nature of the test: Boll weevil test, sprayed jars with adult boll weevils, percent kill after 48 hours. The following applies: Anthonomus grandis, lethal concentration at which 50% of the pests are killed. Type of test: in vivo.
Text: as §1
For the boll weevil and house fly tests, half pint glass canning jars with a screened top are used. Food is supplied for the boll weevil (apple) and for the house fly (sugar water). The test insects consist of 10 adult boll weevils and 20 adult house flies. The jars containing the insects are sprayed using the turntable. The percent kill of boll weevil is determined 48 hours after the application. In the house fly test, a percent knockdown is determined one hour after application, the percent kill after 24 hours.

The subject of test [6] is Corn rootworm ova. Nature of the test: Southern corn rootworm ova test, sprayed filter paper, 6 days. Type of test: in vivo, Diabrotica undecimpunctata howardi. Conditions: 144 h, lethal concentration at which 50% of the pests are killed.
Text: (§4) Diabrotica undecimpunctata howardi
as §1
(§5) For tests involving the southern corn rootworm ova and larvae, two layers of 4.25 cm. filter papers are placed in small, Petri dishes, and sprayed on the turntable with a 600 ppm solution of the test compound and air dried. About 100 eggs in about one milliliter of water are pipetted onto the filter paper and the dishes covered. These are held for 6 days and examined under the microscope. The percent kill values for ova and larvae are determined.

Test [7] concerns Corn rootworm larva. Nature of the test: Southern corn rootworm larvae test, sprayed filter paper, 6 days. Conditions: 144 h, lethal concentration at which 50% of the pests are killed. The format is in vivo, Diabrotica undecimpunctata howardi.
Text: as §4, §1, §5

One may read the LC50 as the concentration that kills 50% of the test population. A lower LC50 goes with a more lethal substance.

Structures are written as SMILES. ≈ marks a conversion by molar mass, not a printed value. Some results are limits rather than exact numbers.

Consider `CCCSP(=O)(OCC)Oc1ccc(S(=O)(=O)Oc2ccccc2)cc1` (centres unmarked) [Example II, O-Ethyl O-[4-(phenoxysulfonyl)phenyl]S-n-propyl phosphorothiolate], for which the LC50 was 7.5 µg/mL (≈ 18 µM) in test [1]; 9.8 µg/mL (≈ 23.5 µM) in test [2]; 75 µg/mL (≈ 180 µM) in test [3]; 32 µg/mL (≈ 76.8 µM) in test [4]; 345 µg/mL (≈ 828 µM) in test [5]; > 600 µg/mL in test [6]. In addition, the LC50 in test [7] was determined as 32 µg/mL (≈ 76.8 µM).
As to `CCCSP(=O)(OCC)Oc1ccc(S(=O)(=O)Oc2ccc([N+](=O)[O-])cc2)cc1` (centres unmarked) [III, O-Ethyl-O-[4-(4'-nitrophenoxysulfonyl)phenyl]S-n-propyl phosphorothiolate], the LC50 is 6.2 µg/mL (≈ 13.4 µM) in test [1]; 5 µg/mL (≈ 10.8 µM) in test [2]; 75 µg/mL (≈ 163 µM) in test [3]; 45 µg/mL (≈ 97.5 µM) in test [4]; > 600 µg/mL in test [5]; > 600 µg/mL in test [6]. The compound also returned an LC50 in test [7] of 75 µg/mL (≈ 163 µM).
Turning to `CCCSP(=O)(OCC)Oc1ccc(S(=O)(=O)Oc2ccc(Cl)cc2)cc1` (centres unmarked) [IV, O-[4-(4'-chlorophenoxysulfonyl)phenyl]O-ethyl S-n-propyl phosphorothiolate], the 50% lethal concentration (LC50) came to 2.5 µg/mL (≈ 5.54 µM) in test [1]; 2.9 µg/mL (≈ 6.43 µM) in test [2]; 75 µg/mL (≈ 166 µM) in test [3]; 75 µg/mL (≈ 166 µM) in test [4]; 138 µg/mL (≈ 306 µM) in test [5]; 142 µg/mL (≈ 315 µM) in test [6]. In test [7], the LC50 stood at 4.1 µg/mL (≈ 9.09 µM).
On to `CCOP(=O)(Oc1ccc(S(=O)(=O)Oc2ccccc2)cc1)SC(C)CC` (centres unmarked) [IX, S-sec-Butyl O-ethyl O-[4-(phenoxysulfonyl)phenyl]phosphorothiolate], for which the median lethal concentration (LC50) in test [1] stood at 2.8 µg/mL (≈ 6.5 µM); in test [2], 5.8 µg/mL (≈ 13.5 µM); in test [3], 15 µg/mL (≈ 34.8 µM); in test [4] it was 45 µg/mL (≈ 105 µM); in test [5], 75 µg/mL (≈ 174 µM); in test [6], 230 µg/mL (≈ 534 µM). In addition, the LC50 in test [7] was 8.4 µg/mL (≈ 19.5 µM).
For the compound `CCCSP(=O)(OCC)Oc1ccc(S(=O)(=O)Oc2ccc(C#N)cc2)cc1` (centres unmarked) [VI, O-[4-(4'-cyanophenoxysulfonyl)phenyl]O-ethyl S-n-propyl phoshorothiolate], the LC50 is 18 µg/mL (≈ 40.8 µM) in test [1]; 6.8 µg/mL (≈ 15.4 µM) in test [2]; 49 µg/mL (≈ 111 µM) in test [3]; 41 µg/mL (≈ 92.9 µM) in test [4]; > 600 µg/mL in test [5]; > 600 µg/mL in test [6]. This compound also registered an LC50 in test [7] of 38 µg/mL (≈ 86.1 µM).
In the case of `CCCSP(=O)(OCC)Oc1ccc(S(=O)(=O)Oc2ccc(SC)cc2)cc1` (centres unmarked) [VII, O-Ethyl-O-[4-(4'-methylthiophenoxysulfonyl)phenyl]S-n-propyl phosphorothiolate], the LC50 in test [1] was 6.4 µg/mL (≈ 13.8 µM); in test [2], 2.4 µg/mL (≈ 5.19 µM); in test [3], 162 µg/mL (≈ 350 µM); in test [4], 27 µg/mL (≈ 58.4 µM); in test [5], 550 µg/mL (≈ 1190 µM); in test [6], > 600 µg/mL. This compound displayed an LC50 in test [7] of 130 µg/mL (≈ 281 µM).
Take `CCCSP(=O)(OCC)Oc1ccc(S(=O)(=O)Oc2ccc(C)cc2)cc1` (centres unmarked) [VIII, O-Ethyl-O-[4-(4'-methylphenoxysulfonyl)phenyl]S-n-propyl phosphorothiolate]: the LC50 in test [1] is 7.5 µg/mL (≈ 17.4 µM); in test [2] it was 20 µg/mL (≈ 46.5 µM); in test [3] it was 150 µg/mL (≈ 348 µM); in test [4] it was 75 µg/mL (≈ 174 µM); in test [5] it was > 600 µg/mL; in test [6], 550 µg/mL (≈ 1280 µM). Also, the LC50 in test [7] was 33 µg/mL (≈ 76.7 µM).
As to `CCOP(=O)(Oc1ccc(S(=O)(=O)Oc2ccccc2)cc1)SCC(C)C` (centres unmarked) [XI, O-Ethyl S-isobutyl O-[4-(phenoxysulfonyl)phenyl]phosphorothiolate], the LC50 in test [1] is 1.3 µg/mL (≈ 3.02 µM); in test [2], 6.6 µg/mL (≈ 15.3 µM); in test [3], 26 µg/mL (≈ 60.4 µM); in test [4] it was 49 µg/mL (≈ 114 µM); in test [5], 75 µg/mL (≈ 174 µM); in test [6], > 600 µg/mL. For the same compound, the LC50 in test [7] was determined as 142 µg/mL (≈ 330 µM).
As to `CCCSP(=O)(OC)Oc1ccc(S(=O)(=O)Oc2ccc([N+](=O)[O-])cc2)cc1` (centres unmarked) [XII, O-Methyl O-[4-(4'-nitrophenoxysulfonyl)phenyl]S-n-propyl phosphorothiola], the LC50 was 26 µg/mL (≈ 58.1 µM) in test [1]; 6.6 µg/mL (≈ 14.8 µM) in test [2]; 54 µg/mL (≈ 121 µM) in test [3]; 45 µg/mL (≈ 101 µM) in test [4]; 500 µg/mL (≈ 1120 µM) in test [5]; > 600 µg/mL in test [6]. The compound also yielded an LC50 in test [7] of 75 µg/mL (≈ 168 µM).
For `CCCSP(=S)(OCC)Oc1ccc(S(=O)(=O)Oc2ccccc2)cc1` (centres unmarked) [XIII, O-Ethyl O-[4-(phenoxysulfonyl)phenyl]S-n-propyl phosphorodithiolate], the LC50 in test [1] is 38 µg/mL (≈ 87.9 µM); in test [2], 8 µg/mL (≈ 18.5 µM); in test [3], 150 µg/mL (≈ 347 µM); in test [4], 75 µg/mL (≈ 173 µM); in test [5] it was 150 µg/mL (≈ 347 µM); in test [6], > 600 µg/mL. The compound also gave an LC50 in test [7] of 10 µg/mL (≈ 23.1 µM).
With `CCCCSP(=O)(OCC)Oc1ccc(S(=O)(=O)Oc2ccccc2)cc1` (centres unmarked) [X], the LC50 was 8.6 µg/mL (≈ 20 µM) in test [1]; 5 µg/mL (≈ 11.6 µM) in test [2]; 27 µg/mL (≈ 62.7 µM) in test [3]; 41 µg/mL (≈ 95.2 µM) in test [4]; > 600 µg/mL in test [5]; > 600 µg/mL in test [6]. The same compound gave an LC50 in test [7] of 75 µg/mL (≈ 174 µM).
